Measured values from patent US20220089592A1, “IMIDAZO[1,2-A]PYRIDINYL DERIVATIVES AS IRAK4 INHIBITORS” (priority 2019, published 2022).
Counter-ions that a name gives are not always drawn.

Molecular target: T1, IRAK4 (Homo sapiens, UniProt Q9NWZ3)
T1 sequence (Q9NWZ3 1-460): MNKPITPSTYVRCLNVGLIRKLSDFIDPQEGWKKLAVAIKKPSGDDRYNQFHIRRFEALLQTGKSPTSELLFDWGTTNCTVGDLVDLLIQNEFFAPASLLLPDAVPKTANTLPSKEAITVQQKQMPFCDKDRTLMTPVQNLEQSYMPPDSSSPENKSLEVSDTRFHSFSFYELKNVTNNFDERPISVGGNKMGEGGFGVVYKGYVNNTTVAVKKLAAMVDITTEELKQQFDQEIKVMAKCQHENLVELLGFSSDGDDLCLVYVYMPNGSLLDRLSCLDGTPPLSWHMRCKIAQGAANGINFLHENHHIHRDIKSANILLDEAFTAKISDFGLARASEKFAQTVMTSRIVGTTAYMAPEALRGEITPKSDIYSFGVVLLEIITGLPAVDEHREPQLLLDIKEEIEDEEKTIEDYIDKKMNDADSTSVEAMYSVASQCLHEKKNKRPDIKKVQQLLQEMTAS
Experiment: 2-hour 1 mM ATP IRAK4 Biochemical assay (as above, but with 100 pM IRAK4 and 1 mM ATP)
Conditions: IRAK4 MSD BIOCHEMICAL (1 mM ATP) IC50 (μM), 100 pM IRAK4, 2 hours
In short: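 MSD electrochemiluminescence read-out: biotinylated peptide product bound to streptavidin plates, probed with anti-P-Thr rabbit antibody and Sulfo-Tag goat anti-rabbit. Kinase reaction used 1 mM ATP and 100 pM IRAK4 over 2 hours before EDTA quench.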

Row | SMILES | IC50
1 | O=C(Nc1cn2cc(C3CCCOC3)nc2c(OC(F)F)n1)c1cccc(C(F)F)n1 (single isomer, unassigned) [Example 302, N-(8-(difluoromethoxy)-2-(tetrahydro-2H-pyran-3-yl)imidazo[1,2-a]pyrazin-6-yl)-6-(difluoromethyl)picolinamide] | 0.008 µM
2 | Cn1ccc(C(=O)Nc2cn3cc(C45COC(C)(C4)C5)nc3cc2C(F)F)n1 [Example 390, N-(7-(difluoromethyl)-2-(1-methyl-2-oxabicyclo[2.1.1]hexan-4-yl)imidazo[1,2-a]pyridin-6-yl)-1-methyl-1H-pyrazole-3-carboxamide 2,2,2-trifluoroacetate] | 0.072 µM
3 | COc1nc(NC(=O)c2coc(C)n2)cn2cc(C34CCC(C)(C3)OC4)nc12 (stereo not drawn) [Example 471, N-(8-methoxy-2-(1-methyl-2-oxabicyclo[2.2.1]heptan-4-yl)imidazo[1,2-a]pyrazin-6-yl)-2-methyloxazole-4-carboxamide 2,2,2-trifluoroacetate] | 0.022 µM
4 | COc1nc(NC(=O)c2cccc(C(F)F)n2)cn2cc(C34COC(CF)(C3)C4)nc12 [Example 559, 6-(difluoromethyl)-N-(2-(1-(fluoromethyl)-2-oxabicyclo[2.1.1]hexan-4-yl)-8-methoxyimidazo[1,2-a]pyrazin-6-yl)picolinamide] | 0.012 µM
5 | CC(C)Oc1cc2nc(C3CCOCC3)cn2cc1NC(=O)c1cccc(C2CCOC2)n1 (stereo not drawn) [Example 380, N-(7-isopropoxy-2-(tetrahydro-2H-pyran-4-yl)imidazo[1,2-a]pyridin-6-yl)-6-(tetrahydrofuran-3-yl)picolinamide hydrochloride] | 0.002 µM
6 | COc1c(F)cccc1C(=O)Nc1cc(C)c2nc(C34COC(C)(C3)C4)cn2c1 [Example 407, 3-fluoro-2-methoxy-N-(8-methyl-2-(1-methyl-2-oxabicyclo[2.1.1]hexan-4-yl)imidazo[1,2-a]pyridin-6-yl)benzamide] | 0.732 µM
7 | CCO[C@H]1C[C@H](Oc2cc3nc(C4CCOCC4)cn3cc2NC(=O)c2cccc(C(F)F)n2)C1 [Example 190, 6-(difluoromethyl)-N-(7-((1R*,3R*)-3-ethoxycyclobutoxy)-2-(tetrahydro-2H-pyran-4-yl)imidazo[1,2-a]pyridin-6-yl)picolinamide] | 0.001 µM
8 | O=C(Nc1cn2cc(C3CCOCC3)nc2cc1OCC1CC(F)(F)C1)c1cccc(C(F)F)n1 [Example 191, N-(7-((3,3-difluorocyclobutyl)methoxy)-2-(tetrahydro-2H-pyran-4-yl)imidazo[1,2-a]pyridin-6-yl)-6-(difluoromethyl)picolinamide] | 0.002 µM
9 | CCc1cccc(C(=O)Nc2cn3cc(C4CCOCC4)nc3cn2)n1 [Example 438, 6-ethyl-N-(2-(tetrahydro-2H-pyran-4-yl)imidazo[1,2-a]pyrazin-6-yl)picolinamide] | 0.007 µM
10 | CCOc1nc(C(=O)Nc2cn3cc(C45COC(C)(C4)C5)nc3c(OC)n2)co1 [Example 440, 2-ethoxy-N-(8-methoxy-2-(1-methyl-2-oxabicyclo[2.1.1]hexan-4-yl)imidazo[1,2-a]pyrazin-6-yl)oxazole-4-carboxamide] | 0.047 µM
11 | CCOc1cc(NC(=O)c2cccc(C(F)F)n2)cn2cc(C34COC(C)(C3)C4)nc12 [Example 414, 6-(difluoromethyl)-N-(8-ethoxy-2-(1-methyl-2-oxabicyclo[2.1.1]hexan-4-yl)imidazo[1,2-a]pyridin-6-yl)picolinamide 2,2,2-trifluoroacetate] | 0.01 µM
12 | COc1cccn2ncc(C(=O)Nc3cn4cc(C56COC(C)(C5)C6)nc4c(OC(C)C)n3)c12 [Example 338, N-(8-isopropoxy-2-(1-methyl-2-oxabicyclo[2.1.1]hexan-4-yl)imidazo[1,2-a]pyrazin-6-yl)-4-methoxypyrazolo[1,5-a]pyridine-3-carboxamide] | 0.002 µM
13 | CC(C)Oc1cc2nc(C3CCOCC3)cn2cc1NC(=O)c1cc(C(F)F)cs1 [Example 232, 4-(difluoromethyl)-N-(7-isopropoxy-2-(tetrahydro-2H-pyran-4-yl)imidazo[1,2-a]pyridin-6-yl)thiophene-2-carboxamide] | 0.044 µM
14 | COc1nc(NC(=O)c2cccc(C(F)F)n2)cn2cc(C3CC3)nc12 [Example 562, N-(2-cyclopropyl-8-methoxyimidazo[1,2-a]pyrazin-6-yl)-6-(difluoromethyl)picolinamide 2,2,2-trifluoroacetate] | 0.053 µM
15 | COc1ncccc1C(=O)Nc1cn2cc(C34COC(C)(C3)C4)nc2c(OC)n1 [Example 447, 2-methoxy-N-(8-methoxy-2-(1-methyl-2-oxabicyclo[2.1.1]hexan-4-yl)imidazo[1,2-a]pyrazin-6-yl)nicotinamide 2,2,2-trifluoroacetate] | 0.015 µM
16 | O=C(Nc1cn2cc(C3CCOCC3)nc2cc1OCCF)c1cccc(C(F)F)n1 [Example 188, 6-(difluoromethyl)-N-(7-(2-fluoroethoxy)-2-(tetrahydro-2H-pyran-4-yl)imidazo[1,2-a]pyridin-6-yl)picolinamide] | 0.001 µM
17 | COc1ncccc1C(=O)Nc1cn2cc(C34COC(C)(C3)C4)nc2c(F)c1OC1CCC1 [Example 436, N-(7-cyclobutoxy-8-fluoro-2-(1-methyl-2-oxabicyclo[2.1.1]hexan-4-yl)imidazo[1,2-a]pyridin-6-yl)-2-methoxynicotinamide 2,2,2-trifluoroacetate] | 0.029 µM
18 | COc1ncccc1C(=O)Nc1cn2cc(Cl)nc2cc1OC(C)C [Example 401, N-(2-chloro-7-isopropoxyimidazo[1,2-a]pyridin-6-yl)-2-methoxynicotinamide] | 0.027 µM
19 | CCc1cc(NC(=O)c2cccc(C(F)F)n2)cn2cc(C3CCOCC3)nc12 [Example 290, 6-(difluoromethyl)-N-(8-ethyl-2-(tetrahydro-2H-pyran-4-yl)imidazo[1,2-a]pyridin-6-yl)picolinamide] | 0.013 µM
20 | CCOc1ncccc1C(=O)Nc1cn2cc(C3CCOCC3)nc2c(OC)n1 [Example 459, 2-ethoxy-N-(8-methoxy-2-(tetrahydro-2H-pyran-4-yl)imidazo[1,2-a]pyrazin-6-yl)nicotinamide] | 0.022 µM
21 | COc1ncccc1C(=O)Nc1cn2cc(C34COC(C)(C3)C4)nc2cc1OC(C)C(F)(F)F (racemic) [Example 317, 2-methoxy-N-(2-(1-methyl-2-oxabicyclo[2.1.1]hexan-4-yl)-7-((1,1,1-trifluoropropan-2-yl)oxy)imidazo[1,2-a]pyridin-6-yl)nicotinamide] | 0.001 µM
22 | COc1ncccc1C(=O)Nc1cn2cc(C34COC(C)(C3)C4)nc2nc1OC1CC1 [Example 505, N-(7-cyclopropoxy-2-(1-methyl-2-oxabicyclo[2.1.1]hexan-4-yl)imidazo[1,2-a]pyrimidin-6-yl)-2-methoxynicotinamide 2,2,2-trifluoroacetate] | 0.007 µM
23 | COc1nc(NC(=O)c2cccc(C(F)F)n2)cn2cc(C34COC(C)(C3)C4)nc12 [Example 554, 6-(difluoromethyl)-N-(8-methoxy-2-(1-methyl-2-oxabicyclo[2.1.1]hexan-4-yl)imidazo[1,2-a]pyrazin-6-yl)picolinamide 2,2,2-trifluoroacetate] | 0.011 µM
24 | CCOc1cc(NC(=O)c2cccc(C(F)(F)F)n2)cn2cc(C3CCCOC3)nc12 (single isomer, unassigned) [Example 288, N-(8-ethoxy-2-(tetrahydro-2H-pyran-3-yl)imidazo[1,2-a]pyridin-6-yl)-6-(trifluoromethyl)picolinamide] | 0.008 µM
